The record followed here is paper PMC8229550 (Pharmaceuticals, 2021).

Structures are written as SMILES. Read-outs that look alike come from different tables or passages of the source. Some results are limits rather than exact numbers.

One data set is described as follows: MTT cytotoxicity assay. The class given is cell-based. The settings on record: normal human adult dermal fibroblasts (HDFa). The method, then: To determine the half-maximal cell toxicity concentration (CC50) to assess the compound toxicity, we prepared stock solutions of the test compounds in 10% DMSO with ddH2O and further diluted with DMEM to the working solutions. The cytotoxic effect of the tested compounds was evaluated in normal human adult dermal fibroblasts (HDFa) (Sigma-Aldrich, Dorset, UK) using the previously reported 3-(4,5-dimethylthiazol-2-yl)-2,5-diphenyltetrazolium bromide (MTT) method with slight adjustments. Briefly, 100 µL cells/well at a density of 3 × 10^5 cells/mL were placed in 96-well plates and then incubated in 5% CO2 for 24 h at 37 °C. After 24 h, different concentrations of the test compound(s) were added to the cells in triplicate. After another 24 h, the supernatant was removed, and cells were washed with sterile 1× PBS three times. Then, 20 µL of 5 mg/mL MTT stock solution was added to each well, and the plate was incubated at 37 °C for 4 h. The produced formazan crystals were dissolved in 200 µL of acidified isopropanol (0.04 M HCl in absolute isopropanol). After that, we measured the absorbance of formazan solutions at λmax 540 nm using a BioTek Lx800 microplate reader (BioTek Instrument Ltd., Bedfordshire, UK). […]
In general terms: Formazan colour is commonly taken as a measure of viable cells.

Data set [1] concerns the target SARS-CoV-2 main protease (M^Pro) (Severe acute respiratory syndrome coronavirus 2, UniProt P0DTD1). The data set can be described thus: biochemical.

`O=C(O)c1cc(=O)c2c(OCC(O)COc3cccc4oc(C(=O)O)cc(=O)c34)cccc2o1` [Cromoglicic acid, cromoglicic acid] showed a CC50 at 24 h in “MTT cytotoxicity assay” greater than 100 µM. Besides, in data set [1], the IC50 came out at 1.1 µM and the affinity, expressed as Ki, was 680 nM. For the same molecule, the “Potency relative to α-rubromycin (times more potent)” value in data set [1] (M^Pro inhibition, versus α-rubromycin) amounted to 4.5 times.
Take `COC(=O)c1cc2cc(CCc3cc4c(o3)C(=O)c3c(O)c(OC)cc(OC)c3C4=O)c(O)c(O)c2c(=O)o1` [α-Rubromycin, α-rubromycin]: the CC50 at 24 h in the data set “MTT cytotoxicity assay” is 16.7 µM. In data set [1] (0–250 µM substrate, 0–50 µM inhibitor, read-out: M^Pro inhibition constant Ki), the Ki is 3220 nM. Besides, in data set [1] (fluorescence, 40 µM substrate, 4 h at 20 °C, read-out: M^Pro inhibitory activity IC50), the concentration for half-maximal inhibition (IC50) was determined as 5.4 µM.

In general, CC50 refers to the concentration giving 50% cytotoxicity. Read a high CC50 as lower toxicity to the cells. The IC50 is the concentration that gives 50% inhibition. The Ki is a dissociation constant, usually derived from enzyme kinetics or from competition with a known ligand.
